Data taken from PubChem BioAssay (NCI).
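Growth conditions: 96-well plates. Treatment: test compound, 48 hours, 5 concentrations. Analysis: linear interpolation between bracketing concentrations; unreached endpoints set to highest concentration. Here, GI50 denotes the concentration required for 50% inhibition of growth. TGI marks complete inhibition of growth.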 Where a SMILES comes first, the peptide text is derived from it. [ ]: non-standard residue; d: D form. The star is where a group is joined. ξ: configuration not given here. X37 = O=C(OCc1ccccc1)[C@@H]1CCC[C@H]1N*; Fmoc = O=C(OCC1c2ccccc2-c2ccccc21)*; ξW = NC(Cc1c[nH]c2ccccc12)C(=O)O; ξF = NC(Cc1ccccc1)C(=O)O; Boc = CC(C)(C)OC(=O)*; ξK = NCCCCC(N)C(=O)O; ξT = CC(O)C(N)C(=O)O; tBu = CC(C)(C)*

Legend:
Test in all cases: growth of human tumour cells (NCI), 48 h
HS 578T breast = tested on: HS 578T breast
M14 melanoma = tested on: M14 melanoma
OVCAR-5 ovarian = tested on: OVCAR-5 ovarian
HL-60(TB) leukemia = tested on: HL-60(TB) leukemia
NCI/ADR-RES ovarian = tested on: NCI/ADR-RES ovarian
MDA-N = tested on: MDA-N
MDA-MB-231 breast = tested on: MDA-MB-231 breast
MOLT-4 leukemia = tested on: MOLT-4 leukemia
SK-MEL-5 melanoma = tested on: SK-MEL-5 melanoma
ACHN renal = tested on: ACHN renal
SK-MEL-28 melanoma = tested on: SK-MEL-28 melanoma
HCC-2998 colon = tested on: HCC-2998 colon
SN12C renal = tested on: SN12C renal
KM12 colon = tested on: KM12 colon
IGROV1 ovarian = tested on: IGROV1 ovarian
A498 renal = tested on: A498 renal
UACC-257 melanoma = tested on: UACC-257 melanoma
LOX IMVI melanoma = tested on: LOX IMVI melanoma

| Compound | TGI (HS 578T breast) [µM] | TGI (M14 melanoma) [µM] | TGI (OVCAR-5 ovarian) [µM] | TGI (HL-60(TB) leukemia) [µM] | TGI (NCI/ADR-RES ovarian) [µM] | TGI (MDA-N) [µM] | TGI (MDA-MB-231 breast) [µM] | TGI (MOLT-4 leukemia) [µM] | TGI (SK-MEL-5 melanoma) [µM] | TGI (ACHN renal) [µM] | TGI (SK-MEL-28 melanoma) [µM] | TGI (HCC-2998 colon) [µM] | TGI (SN12C renal) [µM] | TGI (KM12 colon) [µM] | TGI (IGROV1 ovarian) [µM] | TGI (A498 renal) [µM] | TGI (UACC-257 melanoma) [µM] | TGI (LOX IMVI melanoma) [µM] | GI50 (M14 melanoma) [nM] | GI50 (SN12C renal) [nM] |
| --- | --- | --- | --- | --- | --- | --- | --- | --- | --- | --- | --- | --- | --- | --- | --- | --- | --- | --- | --- | --- |
| COc1ccc(OC)c2c1C[C@@H]1C(C#N)N3[C@H](Cc4c(OC)ccc(OC)c4[C@@H]3C)C(=O)N1[C@H]2C (some centres not stated) | > 100 | 8.54 | 23.7 | 6.18 | > 100 | 22 | 7.56 | 15.9 | 3.25 | 9.53 | 10.1 | 14.4 | > 50.2 | 8.21 | 16.8 | 42.1 | 6.96 | 5.95 | – | – |
| Cc1cc(SCC(=O)c2ccc(Br)cc2)cc(C)[o+]1 | > 100 | 79.1 | 69.9 | 33.8 | 88.3 | > 100 | 98.1 | 56.2 | 35.9 | 96.2 | 42.9 | 75.2 | > 100 | 62.6 | > 100 | 81.6 | 65.9 | > 100 | – | – |
| CC1OC(OC2C(CO)OC(O[C@H]3CC[C@@]4(C)C(=CC[C@H]5[C@@H]6C[C@@H]7O[C@](O)(CC[C@@H](C)COC8OC(CO)C(O)C(O)C8O)[C@@H](C)[C@@H]7[C@@]6(C)CC[C@@H]54)C3)C(OC3OC(C)C(O)C(O)C3O)C2O)C(O)C(O)C1O (some centres not stated) | > 100 | 4.69 | 6.76 | 4.14 | 4.22 | 8.67 | 14.8 | 3.71 | 11.6 | 12.2 | 7.55 | 7.28 | 6.95 | 6.85 | – | > 100 | 14.5 | 3.17 | 2240 | 2710 |
| Cc1nn(-c2ccccc2)c(C)c1/C=N/NC(=O)c1sc(=S)n(-c2ccc(Cl)cc2)c1N | 7.6 | > 100 | > 100 | > 100 | > 100 | > 100 | > 100 | > 100 | 26 | > 100 | > 100 | 88.4 | > 100 | > 100 | 4.26 | > 100 | > 100 | 8.73 | – | – |
| CC(OC(C)(C)C)C(NC(=O)C(CCCCNC(=O)OC(C)(C)C)NC(=O)C(Cc1c[nH]c2ccccc12)NC(=O)C(Cc1ccccc1)NC(=O)OCC1c2ccccc2-c2ccccc21)C(=O)NC(Cc1ccccc1)C(=O)N[C@@H]1CCC[C@H]1C(=O)OCc1ccccc1 (some centres not stated) (Fmoc-[ξF][ξW][ξK](Boc)[ξT](tBu)[ξF]-X37) | > 100 | > 100 | > 100 | > 100 | > 100 | > 100 | > 100 | > 100 | > 100 | > 100 | > 100 | > 100 | > 100 | > 100 | > 100 | – | > 100 | > 100 | – | – |
| CC1(C)OC1CC/C(=C/CBr)CBr (configuration not stated) | 47.7 | 36.5 | 31.5 | 23.9 | 49.6 | 29.3 | 30.1 | 57.9 | 27.5 | 30.9 | 31.5 | 29.8 | 29.1 | 29.9 | 27.3 | 47.9 | 28.8 | 22.3 | – | – |
| COc1ccc2c(c1)CC[C@@H]1C2CC[C@]2(C)OC(=O)CCC12 (some centres not stated) | 60.6 | 36 | 30.9 | > 100 | 33.4 | 62.1 | 11.5 | > 100 | 29.5 | > 100 | 34.3 | > 100 | 29.1 | > 100 | > 100 | > 100 | 32.1 | 19.4 | – | – |
| COC(=O)c1c(C)nc(C)c(N=O)c1-c1ccccc1C(F)(F)F | 44.8 | 47.1 | 51.4 | > 100 | 44.5 | 43.6 | 32.3 | > 100 | 89.4 | > 100 | 28.4 | > 100 | 38.6 | 35.9 | 33.9 | > 100 | 32.8 | 30.8 | – | – |
| COC(=O)c1ccc(/C=C/C2=CC(=O)C=CC2=O)cc1 | > 100 | > 67.2 | 46 | 5.9 | 97.9 | > 100 | > 49.2 | 7.11 | > 52 | 32.7 | 50.8 | 38.5 | 58 | 31.6 | 39.1 | 38.6 | 34.8 | 23.2 | – | – |
